One may read the Cmax as the highest concentration seen after dosing. Usually half-life stands for the time in which the quantity being followed falls by half. A word on the Tmax: it is the time from dosing to the highest level. As usually defined, the CL/F is the apparent clearance, not corrected for the fraction that reaches the circulation. As usually defined, the AUC is concentration integrated over time.

What all share (settings): in vivo
A short description of data set [1]: Cmax in HIV1 infected human at 100 mg, po administered twice daily. In kind it is ADME, organism-based. Details: dose 100 mg, route oral.
The nature of data set [2]: Apparent elimination half life in HIV1 infected human at 100 mg, po administered twice daily. The format is ADME, organism-based.
The test system of data set [3] is Homo sapiens. Kind of data set: Tlag in HIV1 infected human at 100 mg, po administered twice daily. In kind it is ADME, organism-based.
Data set [4] can be described thus: Tmax in HIV1 infected human at 100 mg, po administered twice daily. In kind it is ADME, organism-based.
Data set [5] concerns Homo sapiens. Put plainly: CL/F in HIV1 infected human at 100 mg, po administered twice daily. The format is ADME, organism-based.
In data set [6] the test system is Homo sapiens. Put plainly: AUC in HIV1 infected human at 100 mg, po administered twice daily. In kind it is ADME, organism-based, Plasma.
Data set [7] can be described thus: Apparent elimination half life in HIV1 infected human at 1000 mg, po administered twice daily. The format is ADME, organism-based.
The nature of data set [8]: Tmax in HIV1 infected human at 1000 mg, po administered twice daily. The format is ADME, organism-based.
Data set [9] concerns Homo sapiens. Kind of data set: AUC in HIV1 infected human at 1000 mg, po administered twice daily. In kind it is ADME, organism-based, Plasma.
Data set [10] is described as follows: Cmax in HIV1 infected human at 1000 mg, po administered twice daily. In kind it is ADME, organism-based. The arrangement: dose 1000 mg, route oral.
The test system of data set [11] is Homo sapiens. Put plainly: Tlag in HIV1 infected human at 1000 mg, po administered twice daily. In kind it is ADME, organism-based.

In turn, `CC(C)c1nc(CN(C)C(=O)N[C@H](C(=O)N[C@@H](Cc2ccccc2)C[C@H](O)[C@H](Cc2ccccc2)NC(=O)OCc2cncs2)C(C)C)cs1` [RITONAVIR] displayed a maximum concentration (Cmax) in [1] of 880 ng/mL. The half-life in [2] is 4.3 h. Moreover, the Tlag in the data set on Homo sapiens [3] turned out to be 0.25 h. In addition, the Tmax in data set [4] came out at 4 h. Moreover, in the data set with Homo sapiens [5], the CL/F worked out at 15.6 L/h. The same compound registered an AUC in the data set with Homo sapiens [6] of 6399.9 ng·h/mL.

`CC(C)(C)NC(=O)[C@@H]1C[C@@H]2CCCC[C@@H]2CN1C[C@@H](O)[C@H](Cc1ccccc1)NC(=O)[C@H](CC(N)=O)NC(=O)c1ccc2ccccc2n1` [SAQUINAVIR]: the half-life in data set [7] was 3.7 h. For the same compound, the Tmax in [8] was 4 h. Also, in the data set with Homo sapiens [9], the AUC was found to be 17546.5 ng·h/mL. Further, in data set [10], the highest concentration (Cmax) amounted to 2620 ng/mL. Further, in the data set on Homo sapiens [11], the Tlag was 0 h.

For the origin of these results see ChEMBL document CHEMBL1143414, “Association of saquinavir plasma concentrations with side effects but not with antiretroviral outcome in patients infected with protease inhibitor-susceptible human immunodeficiency virus type 1” (Antimicrob Agents Chemother, 2007).
